Converted amounts (≈) assume the structure as drawn. Read-outs that look alike come from different tables or passages of the source.
Assays:
[1] = target: T1, S. aureus DnaE (DNA polymerase III α-subunit homolog from Staphylococcus aureus) (Staphylococcus aureus, UniProt Q5HF71); assay: biochemical; format: biochemical
T1 construct: SaDnaE (S. aureus DnaE residues 1-1065); 6xHis (N); made in house; host or cells: E. coli BL21-AI
T1 sequence (Q5HF71 1-1065): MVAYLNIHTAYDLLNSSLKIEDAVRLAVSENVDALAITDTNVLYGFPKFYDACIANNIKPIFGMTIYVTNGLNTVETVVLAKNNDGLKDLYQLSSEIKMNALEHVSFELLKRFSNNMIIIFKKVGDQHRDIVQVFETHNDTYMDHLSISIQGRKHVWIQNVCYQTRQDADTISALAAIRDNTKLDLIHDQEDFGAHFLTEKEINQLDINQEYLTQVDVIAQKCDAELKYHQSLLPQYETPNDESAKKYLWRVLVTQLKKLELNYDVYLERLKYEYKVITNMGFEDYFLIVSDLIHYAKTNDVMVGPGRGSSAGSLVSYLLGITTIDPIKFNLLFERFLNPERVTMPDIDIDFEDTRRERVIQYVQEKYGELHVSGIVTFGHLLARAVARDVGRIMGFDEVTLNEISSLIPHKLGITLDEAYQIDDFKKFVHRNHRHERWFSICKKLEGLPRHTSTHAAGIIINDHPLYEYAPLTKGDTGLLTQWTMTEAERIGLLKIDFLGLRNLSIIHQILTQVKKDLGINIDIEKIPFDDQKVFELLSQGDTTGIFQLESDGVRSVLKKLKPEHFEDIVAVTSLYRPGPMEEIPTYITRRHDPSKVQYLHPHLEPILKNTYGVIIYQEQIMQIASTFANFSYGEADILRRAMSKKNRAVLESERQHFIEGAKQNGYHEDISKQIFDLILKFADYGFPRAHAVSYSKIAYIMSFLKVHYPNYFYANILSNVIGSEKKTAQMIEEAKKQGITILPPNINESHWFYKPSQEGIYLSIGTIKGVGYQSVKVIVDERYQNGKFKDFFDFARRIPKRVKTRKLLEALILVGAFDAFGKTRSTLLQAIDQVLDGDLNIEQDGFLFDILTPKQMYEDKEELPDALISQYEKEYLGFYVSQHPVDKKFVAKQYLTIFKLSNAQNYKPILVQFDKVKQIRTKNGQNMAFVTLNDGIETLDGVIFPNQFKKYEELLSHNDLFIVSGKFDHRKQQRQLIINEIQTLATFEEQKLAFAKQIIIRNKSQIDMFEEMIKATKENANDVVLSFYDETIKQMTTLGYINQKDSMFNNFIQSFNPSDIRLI
Procedure, shortened: (§1)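 His-tagged E. coli DnaE (residues 1-1160, 0.8 μg/ml) or S. aureus DnaE (residues 1-1065, 0.05 μg/ml) incubated 30 min at 30° C. with activated calf thymus DNA, 0.025 mM dATP/dGTP/dCTP and 0.011 mM 3H-dTTP in Tris pH 7.5/Mg acetate. TCA-precipitated labelled DNA counted.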

[2] = test system: Escherichia coli MB5747 (LS 883, tolC); assay: microbe, parasite or virus in culture; format: cell-based; settings: Escherichia coli, read-out: E. coli LS883 tolC (MIC), MHII broth; * = some reduction of growth versus control at […]
[3] = test system: Staphylococcus aureus MB6266 (MRSA COL); assay: Nargenicin antibacterial assay (MIC), S. aureus; format: cell-based; settings: Staphylococcus aureus, MRSA, read-out: S. aureus COL (MIC), MHII broth + 50% human serum; * = some reduction of growth versus control at […]
[4] = target: T2, E. coli DnaE (DNA polymerase III α-subunit from Escherichia coli) (Escherichia coli, UniProt P10443); assay: In vitro DnaE single enzyme assay (E. coli); format: biochemical
T2 construct: EcDnaE (E. coli DnaE residues 1-1160); 6xHis (N); made in house; host or cells: E. coli BL21(DE3)
Procedure, shortened: as §1

[5] = test system: Streptococcus pneumoniae MB6357 (CL 2883); assay: Nargenicin antibacterial assay (MIC), S. pneumoniae; format: cell-based; settings: Streptococcus pneumoniae, read-out: S. pneumoniae MB2883 (MIC), Isosensitest broth; * = some reduction of growth versus control at […]
[6] = test system: Pseudomonas aeruginosa MB5890 (CB1101, efflux-deleted); assay: microbe, parasite or virus in culture; format: cell-based; settings: Pseudomonas aeruginosa, read-out: P. aeruginosa MB5890 efflux-del (MIC), MHII broth; * = some reduction of growth versus control at […]
[7] = read-out: E. coli DnaE IC50 (converted)

T2 sequence (P10443 whole entry, the tested form may be a part): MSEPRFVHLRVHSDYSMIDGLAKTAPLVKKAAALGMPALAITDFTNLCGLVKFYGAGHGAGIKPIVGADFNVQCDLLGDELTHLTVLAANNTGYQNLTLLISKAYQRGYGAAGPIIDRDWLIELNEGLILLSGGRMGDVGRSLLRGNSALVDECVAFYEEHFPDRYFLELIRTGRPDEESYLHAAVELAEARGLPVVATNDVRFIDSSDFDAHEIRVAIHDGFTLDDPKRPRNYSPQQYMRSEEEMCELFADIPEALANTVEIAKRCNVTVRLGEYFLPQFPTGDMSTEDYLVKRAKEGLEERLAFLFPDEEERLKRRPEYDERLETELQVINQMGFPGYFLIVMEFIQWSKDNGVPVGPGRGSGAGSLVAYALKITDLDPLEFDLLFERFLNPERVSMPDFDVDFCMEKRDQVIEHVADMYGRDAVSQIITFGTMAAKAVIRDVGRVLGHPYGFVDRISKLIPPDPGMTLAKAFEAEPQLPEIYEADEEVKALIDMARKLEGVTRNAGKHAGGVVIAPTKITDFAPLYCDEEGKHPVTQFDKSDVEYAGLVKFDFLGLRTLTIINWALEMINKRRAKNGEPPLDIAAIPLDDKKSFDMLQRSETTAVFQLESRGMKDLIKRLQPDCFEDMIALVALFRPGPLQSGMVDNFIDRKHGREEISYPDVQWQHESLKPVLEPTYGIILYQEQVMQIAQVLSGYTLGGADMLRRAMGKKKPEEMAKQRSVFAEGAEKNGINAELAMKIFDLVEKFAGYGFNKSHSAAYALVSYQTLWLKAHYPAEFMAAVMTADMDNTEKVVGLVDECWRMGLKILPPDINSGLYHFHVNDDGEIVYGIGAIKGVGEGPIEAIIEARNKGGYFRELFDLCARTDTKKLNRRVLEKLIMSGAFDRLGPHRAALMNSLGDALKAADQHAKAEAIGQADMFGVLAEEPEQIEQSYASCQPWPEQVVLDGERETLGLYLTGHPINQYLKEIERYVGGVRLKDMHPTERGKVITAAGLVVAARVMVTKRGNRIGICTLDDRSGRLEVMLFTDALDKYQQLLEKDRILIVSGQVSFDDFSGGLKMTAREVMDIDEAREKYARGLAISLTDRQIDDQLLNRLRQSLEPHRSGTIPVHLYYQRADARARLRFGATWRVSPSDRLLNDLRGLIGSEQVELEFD

In the case of `CO[C@H]1C[C@H]2C=C[C@H]3[C@H]4O[C@]2(/C(C)=C/[C@@H](C)[C@@H]([C@@H](C)O)OC1=O)[C@@H]3[C@H](O)C(C)[C@@H]4NCc1cccs1.O=C(O)C(F)(F)F` (stereo partly drawn) [Example 153], the IC50 ([1]; read-out: S. aureus DnaE IC50 (converted)) is reported as 47.5 µM, the MIC [2] is reported as greater than 128 µg/mL and the MIC [3] is reported as greater than 128 µg/mL. For the same compound, the IC50 ([4]; E. coli DnaE IC50) was greater than 158 µM, the MIC [5] was greater than 128 µg/mL and the MIC [6] was greater than 128 µg/mL.
Work on `CO[C@H]1CC2C=C[C@H]3[C@H]4O[C@]2(/C(C)=C/[C@@H](C)[C@@H](C(C)O)OC1=O)[C@@H]3[C@H](O)[C@@H](C)[C@H]4OC(=O)c1ccc[nH]1` (stereo partly drawn) [Example 145, Nargenicin A1, reference compound] yielded an IC50 ([1]; S. aureus DnaE IC50) of less than 0.0116 µM, an MIC [2] of 0.25 µg/mL (≈ 0.485 µM) and an MIC [3] of 0.25 µg/mL. The IC50 [4, 7] was 1.75 µM, the MIC [5] was greater than 128 µg/mL and the MIC [6] was 4 µg/mL (≈ 7.76 µM).
With `CO[C@H]1C[C@H]2C=CC3C4[C@H](O)[C@@H](C)[C@@H](OC(=O)c5ccc[nH]5)[C@@H]3O[C@]42/C(C)=C/[C@@H](C)[C@@H]([C@@H](C)OC(=O)n2nnnc2N)OC1=O` [Example 64] the IC50 ([1]; S. aureus DnaE IC50) was less than 0.00957 µM, the MIC [2] was 4 µg/mL (≈ 6.38 µM) and the MIC [3] was 4 µg/mL. The IC50 [4, 7] was 46.3 µM, the MIC [5] was greater than 128 µg/mL and the MIC [6] was 128 µg/mL (≈ 204 µM).
Compound `CO[C@H]1C[C@H]2C=C[C@H]3[C@H]4O[C@]2(/C(C)=C/[C@@H](C)[C@@H]([C@@H](C)OC(=O)OCC(C)(N)CO)OC1=O)[C@@H]3[C@H](O)[C@@H](C)[C@H]4OC(=O)c1ccc[nH]1.O=C(O)C(F)(F)F` (stereo partly drawn) [Example 28] has an IC50 ([1]; S. aureus DnaE IC50) of roughly 0.00657 µM, an MIC [2] of 2 µg/mL and an MIC [3] of 2 µg/mL. The IC50 [4, 7] was greater than 131 µM, the MIC [5] was 128 µg/mL and the MIC [6] was 32 µg/mL.
Work on `CO[C@H]1C[C@H]2C=C[C@H]3[C@H]4O[C@]2(/C(C)=C/[C@@H](C)[C@@H]([C@@H](C)O)OC1=O)[C@@H]3[C@H](O)[C@@H](C)[C@H]4OC(=O)c1cccn1C` [Example 196] yielded an IC50 ([1]; S. aureus DnaE IC50) of 9.82 µM, an MIC [2] of 64 µg/mL (≈ 121 µM) and an MIC [3] greater than 128 µg/mL. It also gave an IC50 [4, 7] greater than 189 µM, an MIC [5] of 128 µg/mL (≈ 242 µM) and an MIC [6] greater than 128 µg/mL.
For `CO[C@H]1C[C@H]2C=C[C@H]3[C@H]4O[C@]2(/C(C)=C/[C@@H](C)[C@@H](C(C)=O)OC1=O)[C@@H]3C(=O)[C@@H](C)[C@H]4OC(=O)c1ccc[nH]1` [Example 171], the IC50 ([1]; S. aureus DnaE IC50) was 6.84 µM, the MIC [2] was greater than 8 µg/mL and the MIC [3] was greater than 8 µg/mL. It also gave an IC50 [4, 7] of 176 µM, an MIC [5] greater than 128 µg/mL and an MIC [6] greater than 128 µg/mL.
Work on `COC1CC2C=CC3C4OC2(C(C)=CC(C)C(C(C)OC(=O)OCCN(CCO)CCO)OC1=O)C3C(O)C(C)C4OC(=O)c1ccc[nH]1` (stereo not drawn) [Example 32] yielded an IC50 ([1]; S. aureus DnaE IC50) of roughly 0.00651 µM, an MIC [2] of 2 µg/mL (≈ 2.9 µM) and an MIC [3] of 2 µg/mL. For the same compound, the IC50 [4, 7] was greater than 145 µM, the MIC [5] was greater than 128 µg/mL and the MIC [6] was 64 µg/mL (≈ 92.6 µM).
Compound `CO[C@H]1C[C@H]2C[C@H](O)[C@H]3[C@H]4O[C@]2(/C(C)=C/[C@@H](C)[C@@H]([C@@H](C)O)OC1=O)[C@@H]3[C@H](O)[C@@H](C)[C@H]4OC(=O)c1ccc[nH]1` [Example 192] has an IC50 ([1]; S. aureus DnaE IC50) of 18.7 µM, an MIC [2] greater than 128 µg/mL and an MIC [3] greater than 128 µg/mL. It also gave an IC50 [4, 7] greater than 187 µM, an MIC [5] greater than 128 µg/mL and an MIC [6] greater than 128 µg/mL.
Work on `CO[C@H]1CC2C=C[C@H]3[C@H]4O[C@]2(/C(C)=C/[C@@H](C)[C@@H]([C@@H](C)OC(=O)NCCO)OC1=O)[C@@H]3[C@H](O)[C@@H](C)[C@H]4OC(=O)c1ccc[nH]1` (stereo partly drawn) [Example 15] yielded an IC50 ([1]; S. aureus DnaE IC50) of less than 0.00996 µM, an MIC [2] of 4 µg/mL (≈ 6.64 µM) and an MIC [3] of 8 µg/mL. For the same compound, the IC50 [4, 7] was roughly 183 µM, the MIC [5] was greater than 128 µg/mL and the MIC [6] was 128 µg/mL (≈ 212 µM).

— patent US9944654B2, “Nargenicin compounds and uses thereof as antibacterial agents” (priority 2014, dated 2018)
